The text below walks through data of US20190054054A1, “Methods reducing or preventing oxidation of high density lipoprotein (HDL)” (Amarin Pharmaceuticals Ireland Limited, priority 2017, published 2019).

One assay relates to HUVECs. The assay can be described thus: NO and ONOO^− release from pretreated HUVECs exposed to native LDL undergoing oxidation (Example 11, Objective 3). It is filed as cell-based, human. To be noted: cells pretreated 30 min, agents each at 10 μM; native LDL 11 mg/dL pretreated with the same agents under auto-oxidation; 60 min. On the procedure: The omega-3 fatty acid, cis-5,8,11,14,17-eicosapentaenoic acid (EPA) and docosahexaenoic acid (DHA) were purchased from Sigma-Aldrich (Saint Louis, Mo.) and solubilized in redistilled ethanol to 11 mM under nitrogen atmosphere. EPA and DHA stock solutions were stored at −20° C. until use.
Human umbilical vein endothelial cells (HUVECs) were obtained from healthy, female donors and isolated into primary, proliferating cell cultures (Clonetics, San Diego, Calif.). The cells were incubated in 95% air/5% CO2 at 37° C. and passaged by an enzymatic (trypsin) procedure. The confluent cells (4 to 5×10^5 cells/35 mm dish) were plated with minimum essential medium containing 3 mM L-arginine and 0.1 mM BH4 [(6R)-5,6,7,8-tetrahydrobiopterin]. Before experimental use, the cells (from second or third passage) were rinsed twice with Tyrode-HEPES buffer with 1.8 mM CaCl2.
Venous blood was collected from healthy volunteers into vacutainer tubes containing sodium EDTA. Plasma was separated by centrifugation at 3000 g for 25 min at 4° C. and adjusted to a density of 1.020 g/mL with KBr. Triglyceride-rich lipoproteins (TGRL) and LDL fractions were isolated by sequential centrifugation at 70,000 rpm at 4° C. in a Beckman LE-80 ultracentrifuge using a Beckman 50.4Ti rotor (Beckman Coulter, Inc., Fullerton, Calif.). The TGRL fraction (with a relative density of <1.020) was aspirated from the top of the centrifugate and discarded, leaving an LDL-enriched infranate (with a relative density of 1.020-1.063). The LDL subfraction was retained for additional experimentation. Plasma and lipoprotein fractions were maintained at 4° C. and protected from excessive exposure to light. Prior to oxidation experiments, EDTA was removed from the lipoprotein fraction using PD-10 desalting columns (GE Healthcare, Piscataway N.J.). After equilibration of the column with phosphate buffered saline (PBS), 2.5 mL of the lipoprotein fraction was loaded on the column and the flow-through discarded. The lipoprotein was then eluted with 3 mL of PBS. The LDL fractions were further diluted with PBS to obtain a 100 μg/mL apoB100 concentration.
LDL underwent oxidation following the addition of 10 μM CuSO4. […] Sample TBARS concentrations were determined spectrophotometrically by measuring sample absorbances against a standard curve derived from the hydrolysis of 1,1,3,3-tetramethoxypropane. […]
The amperometric method (with a response time of 0.1 ms) provides a quantitative signal (current) that is directly proportional to changes (from basal levels) in NO or ONOO^− concentration. […] Basal NO or ONOO^− levels were measured by differential pulse voltammetry in separate experiments. […]

Assay [1] is described as follows: Glucose-induced membrane lipid peroxidation (LOOH, CHOD-iodide assay) in DLPC/cholesterol vesicles (Examples 4 and 5). Conditions: for inhibition of the peroxidative effects of glucose (LOOH formation) / effect on LOOH formation / lipid peroxidation (FIG. 3): 1:30 drug-to-phospholipid mole ratio; for effect on LOOH formation / lipid peroxidation (FIG. 3): glucose, 72- and 96-hour time points. Format: biochemical. As to the method: Vitamin E (α-tocopherol) was also purchased from Sigma-Aldrich and prepared in ethanol at 1.0 mM (e=[…] at 294 nm) just prior to experimental use. […] All test compounds were further diluted in ethanol or aqueous buffer as needed. Glucose was prepared in saline buffer (0.5 mM HEPES, 154 mM NaCl, pH 7.3) at 11.0 mM (200 mg/dL). CHOD-iodide color reagent (stock) was prepared, with slight modification, as described by from El-Saadani et al. (J. […] Samples were shell-dried under nitrogen gas and placed under vacuum for 1 h to remove residual solvent. […] Lipid suspensions were then vortexed for 3 min at ambient temperature to form MLVs. All MLV samples were subjected to time-dependent autoxidation by incubating at 37° C. in an uncovered, shaking water bath. This method allows lipid peroxidation to occur gradually without requiring the use of exogenous initiators. Small aliquots (5-100 μL) of each sample were removed, immediately following MLV preparation (0 hour) and after exposing samples to oxidative conditions for 72 or 96 hour, and combined with 1.0 mL of activated CHOD-iodide color reagent. Aliquot volume was reduced with each successive time point to ensure that spectrophotometric readings were within the optimal adsorption range. Test samples were covered and incubated in darkness at room temperature for at least 4 hr. Sample absorbances were then measured against a CHOD blank at 365 nm using a Beckman DU-640 spectrophotometer. The CHOD colorimetric assay is based on the oxidation of iodide (I^−) by lipid hydroperoxide (LOOH) to form triiodide (I3^−), the quantity of which is directly proportional to the amount of LOOH present in the lipid sample. The molar absorptivity (ε) of I3^− is 2.46×10^4 M^−1 cm^−1 at 365 nm. An experiment was conducted to compare the ability of EPA to prevent lipid hydroperoxide formation in model membranes treated with glucose to two other 20-carbon fatty acids: eicosanoic acid (“EA,” also referred to as arachidic acid, C20:0) and eicosatrienoic acid (“ETE,” C20:3, n-3). All MLV samples were subjected to time-dependent autoxidation by incubating at 37° C. in an uncovered, shaking water bath. This method allows lipid peroxidation to occur gradually without requiring the use of exogenous initiators. Small aliquots (5-100 μL) of each sample were removed, immediately following MLV preparation (0 hr) and after exposing samples to oxidative conditions for 72 or 96 hr, and combined with 1.0 mL of activated CHOD-iodide color reagent. Aliquot volume was reduced with each successive time point to ensure that spectrophotometric readings were within the optimal adsorption range. Test samples were covered and incubated in darkness at room temperature for at least 4 hr. Sample absorbances were then measured against a CHOD blank at 365 nm using a Beckman DU-640 spectrophotometer. The CHOD colorimetric assay is based on the oxidation of iodide (I^−) by lipid hydroperoxide (LOOH) to form triiodide (I3^−), the quantity of which is directly proportional to the amount of LOOH present in the lipid sample. The molar absorptivity (ε) of I3^− is 2.46×10^4 M^−1 cm^−1 at 365 nm.

The structures appear in SMILES notation.

Consider `CC/C=C\C/C=C\C/C=C\C/C=C\C/C=C\C/C=C\CCC(=O)O` [DHA, docosahexaenoic acid], for which, in the assay with HUVECs, the NO is reported as 406 ± 40 and the “ONOO^−” value is on record as 212 ± 26.
With `CC/C=C\C/C=C\C/C=C\C/C=C\C/C=C\CCCC(=O)O` [EPA, cis-5,8,11,14,17-eicosapentaenoic acid], in the assay with HUVECs, the NO is 419 ± 37. Also, the “ONOO^−” value with HUVECs is 207 ± 24. Moreover, the “inhibition of the peroxidative effects of glucose (LOOH formation)” value was 88% in assay [1] (glucose 200 mg/dL, 72 hours) and 86% in assay [1] (glucose 200 mg/dL, 96 hours). The “effect on LOOH formation / lipid peroxidation (FIG. 3)” value in assay [1] was “significantly inhibited LOOH formation”. The “membrane LOOH formation, dose dependence” value in assay [1] (EPA at 1.0 and 5.0 μM, glucose-treated) is “inhibit membrane LOOH formation in a dose-dependent manner”. In assay [1] (Example 5, 72 and 96 hr), the “LOOH formation compared to vehicle only, glucose only, glucose and EA, or glucose and ETE” value is reported as “significantly less LOOH formation”. Besides, the “antioxidant effect, separate treatments” value in assay [1] (each at 1.0 μM, glucose 200 mg/dL, 96 hours) was “separate and potent antioxidant effects”.
As to `Cc1c(C)c2c(c(C)c1O)CC[C@@](C)(CCC[C@H](C)CCC[C@H](C)CCCC(C)C)O2` [vitamin E, α-tocopherol], in assay [1], the “effect on LOOH formation / lipid peroxidation (FIG. 3)” value is given as “no significant effect on lipid peroxidation”.
